In ChEMBL document CHEMBL1681708, “The synthesis and structure-activity relationship of pyridazinones as glucan synthase inhibitors” (Bioorg Med Chem Lett, 2011):
pIC50: −log10 of the molar value. Converted amounts (≈) assume the structure as drawn.

Assays:
Nakaseomyces glabratus = assay: Antifungal activity against Candida glabrata C624 by broth dilution method; type: functional; settings: read-out: MIC100
Candida albicans = assay: Antifungal activity against Candida albicans C693 by broth dilution method; type: functional; settings: for MIC: read-out: MIC100
Beta-1,3-glucan synthase = target: T1, Beta-1,3-glucan synthase (Candida albicans, UniProt O13383); assay: Inhibition of Candida albicans BWP17 1,3-beta-D-glucan synthase
T1 sequence (O13383 whole entry): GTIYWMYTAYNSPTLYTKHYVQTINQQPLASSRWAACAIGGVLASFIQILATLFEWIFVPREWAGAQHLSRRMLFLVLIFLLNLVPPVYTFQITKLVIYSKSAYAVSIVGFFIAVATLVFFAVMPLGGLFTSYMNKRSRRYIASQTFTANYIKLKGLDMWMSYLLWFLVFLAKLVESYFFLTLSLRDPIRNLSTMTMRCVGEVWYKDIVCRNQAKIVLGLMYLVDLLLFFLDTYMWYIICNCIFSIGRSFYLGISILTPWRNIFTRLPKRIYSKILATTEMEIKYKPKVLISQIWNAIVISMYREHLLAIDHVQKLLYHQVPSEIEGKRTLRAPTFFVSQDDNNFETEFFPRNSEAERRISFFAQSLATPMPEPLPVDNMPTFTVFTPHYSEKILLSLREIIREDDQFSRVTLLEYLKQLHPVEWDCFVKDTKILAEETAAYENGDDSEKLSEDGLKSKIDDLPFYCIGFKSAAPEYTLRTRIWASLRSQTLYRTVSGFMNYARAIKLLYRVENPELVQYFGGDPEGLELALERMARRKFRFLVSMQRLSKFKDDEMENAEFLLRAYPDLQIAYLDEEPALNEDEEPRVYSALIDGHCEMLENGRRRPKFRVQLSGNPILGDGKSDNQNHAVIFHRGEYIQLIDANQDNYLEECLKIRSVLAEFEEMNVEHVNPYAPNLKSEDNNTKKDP

[1] = AUC (0 to 6 hrs) in rat at 10 mg/kg, po administered with methylcellulose; type: ADME, organism-based; set-up: time < 6 hr, dose 10 mg/kg, route oral; settings: in vivo
Aspergillus fumigatus = assay: Antifungal activity against Aspergillus fumigatus ND158 by broth dilution method; type: functional; settings: read-out: MEC
Cytochrome P450 2C9 = Cytochrome P450 2C9 (Homo sapiens, UniProt P11712); assay: Inhibition of CYP2C9 at 30 uM; type: ADME
Cytochrome P450 2C9, sequence (P11712 whole entry): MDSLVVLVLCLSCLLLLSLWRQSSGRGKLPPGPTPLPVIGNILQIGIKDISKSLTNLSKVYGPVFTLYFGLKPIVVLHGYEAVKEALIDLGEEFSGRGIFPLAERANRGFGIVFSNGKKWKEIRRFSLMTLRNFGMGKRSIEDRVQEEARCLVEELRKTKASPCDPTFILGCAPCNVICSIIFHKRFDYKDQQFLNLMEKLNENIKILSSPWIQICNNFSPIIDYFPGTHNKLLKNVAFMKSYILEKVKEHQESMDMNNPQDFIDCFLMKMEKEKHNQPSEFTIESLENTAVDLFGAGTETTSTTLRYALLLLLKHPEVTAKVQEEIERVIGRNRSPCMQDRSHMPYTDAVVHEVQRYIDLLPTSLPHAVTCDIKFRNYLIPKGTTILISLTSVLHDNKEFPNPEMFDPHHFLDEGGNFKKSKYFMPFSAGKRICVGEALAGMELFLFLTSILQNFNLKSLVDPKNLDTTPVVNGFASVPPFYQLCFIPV

Cytochrome P450 2D6 = Cytochrome P450 2D6 (Homo sapiens, UniProt P10635); assay: Inhibition of CYP2D6 at 30 uM; type: ADME
Cytochrome P450 2D6, sequence (P10635 whole entry): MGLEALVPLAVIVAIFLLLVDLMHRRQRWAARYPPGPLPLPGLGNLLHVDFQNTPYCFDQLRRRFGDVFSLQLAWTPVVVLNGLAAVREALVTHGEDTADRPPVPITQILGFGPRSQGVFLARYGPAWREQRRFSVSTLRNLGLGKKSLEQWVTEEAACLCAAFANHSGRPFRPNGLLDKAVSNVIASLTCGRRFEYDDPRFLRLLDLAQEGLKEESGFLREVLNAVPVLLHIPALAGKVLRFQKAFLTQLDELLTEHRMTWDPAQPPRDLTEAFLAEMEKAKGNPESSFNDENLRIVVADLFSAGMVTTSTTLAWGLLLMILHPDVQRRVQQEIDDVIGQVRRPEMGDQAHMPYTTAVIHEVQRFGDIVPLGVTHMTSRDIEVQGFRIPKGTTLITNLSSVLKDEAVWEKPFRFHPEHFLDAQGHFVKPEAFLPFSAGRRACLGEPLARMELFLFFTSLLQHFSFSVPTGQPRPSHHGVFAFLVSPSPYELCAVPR

Cytochrome P450 3A4 = Cytochrome P450 3A4 (Homo sapiens, UniProt P08684); assay: Inhibition of CYP3A4 at 30 uM; type: ADME
Cytochrome P450 3A4, sequence (P08684 whole entry): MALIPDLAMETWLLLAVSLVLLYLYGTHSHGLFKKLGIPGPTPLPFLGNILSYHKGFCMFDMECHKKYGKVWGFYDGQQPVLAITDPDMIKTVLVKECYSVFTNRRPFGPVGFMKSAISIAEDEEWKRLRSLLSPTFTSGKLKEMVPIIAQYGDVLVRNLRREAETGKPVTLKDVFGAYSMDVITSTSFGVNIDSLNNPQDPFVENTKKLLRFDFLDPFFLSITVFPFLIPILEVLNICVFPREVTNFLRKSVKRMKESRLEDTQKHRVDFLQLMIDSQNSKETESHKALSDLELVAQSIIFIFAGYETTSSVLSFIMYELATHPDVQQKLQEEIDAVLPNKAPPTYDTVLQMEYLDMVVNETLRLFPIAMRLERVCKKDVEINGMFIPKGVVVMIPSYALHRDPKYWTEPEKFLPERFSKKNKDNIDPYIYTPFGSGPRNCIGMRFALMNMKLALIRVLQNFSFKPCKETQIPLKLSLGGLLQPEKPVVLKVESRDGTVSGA

Hepatocyte [2] = assay: Clearance in human hepatocytes measured per molar mass of cells; type: ADME, cell-based, Liver
Candida glabrata [3] = assay: Antifungal activity against Candida glabrata C624 infected in immunocompromized mouse assessed as log10 reduction in CFU in kidney at 10 mg/kg, poqd for seven days (reference value: 4.28 log10 CFU)
[4] = AUC (0 to 8 hrs) in dog at 2 mg/kg, po administered with methylcellulose and HPBCD; type: ADME, organism-based, Canis lupus familiaris; set-up: time < 8 hr, dose 2 mg/kg, route oral; settings: in vivo
[5] = Clearance in dog hepatocytes measured per molar mass of cells; type: ADME, cell-based, Canis lupus familiaris, Liver, Hepatocyte
Candida glabrata [6] = assay: Antifungal activity against Candida glabrata C624 infected in immunocompromized mouse assessed as log10 reduction in CFU in kidney at 30 mg/kg, poqd for seven days (reference value: 4.28 log10 CFU)
hERG (KCNH2) = hERG (KCNH2) (Homo sapiens, UniProt Q12809); assay: Inhibition of human ERG at 1 uM by patch clamp assay
hERG (KCNH2), sequence (Q12809 whole entry): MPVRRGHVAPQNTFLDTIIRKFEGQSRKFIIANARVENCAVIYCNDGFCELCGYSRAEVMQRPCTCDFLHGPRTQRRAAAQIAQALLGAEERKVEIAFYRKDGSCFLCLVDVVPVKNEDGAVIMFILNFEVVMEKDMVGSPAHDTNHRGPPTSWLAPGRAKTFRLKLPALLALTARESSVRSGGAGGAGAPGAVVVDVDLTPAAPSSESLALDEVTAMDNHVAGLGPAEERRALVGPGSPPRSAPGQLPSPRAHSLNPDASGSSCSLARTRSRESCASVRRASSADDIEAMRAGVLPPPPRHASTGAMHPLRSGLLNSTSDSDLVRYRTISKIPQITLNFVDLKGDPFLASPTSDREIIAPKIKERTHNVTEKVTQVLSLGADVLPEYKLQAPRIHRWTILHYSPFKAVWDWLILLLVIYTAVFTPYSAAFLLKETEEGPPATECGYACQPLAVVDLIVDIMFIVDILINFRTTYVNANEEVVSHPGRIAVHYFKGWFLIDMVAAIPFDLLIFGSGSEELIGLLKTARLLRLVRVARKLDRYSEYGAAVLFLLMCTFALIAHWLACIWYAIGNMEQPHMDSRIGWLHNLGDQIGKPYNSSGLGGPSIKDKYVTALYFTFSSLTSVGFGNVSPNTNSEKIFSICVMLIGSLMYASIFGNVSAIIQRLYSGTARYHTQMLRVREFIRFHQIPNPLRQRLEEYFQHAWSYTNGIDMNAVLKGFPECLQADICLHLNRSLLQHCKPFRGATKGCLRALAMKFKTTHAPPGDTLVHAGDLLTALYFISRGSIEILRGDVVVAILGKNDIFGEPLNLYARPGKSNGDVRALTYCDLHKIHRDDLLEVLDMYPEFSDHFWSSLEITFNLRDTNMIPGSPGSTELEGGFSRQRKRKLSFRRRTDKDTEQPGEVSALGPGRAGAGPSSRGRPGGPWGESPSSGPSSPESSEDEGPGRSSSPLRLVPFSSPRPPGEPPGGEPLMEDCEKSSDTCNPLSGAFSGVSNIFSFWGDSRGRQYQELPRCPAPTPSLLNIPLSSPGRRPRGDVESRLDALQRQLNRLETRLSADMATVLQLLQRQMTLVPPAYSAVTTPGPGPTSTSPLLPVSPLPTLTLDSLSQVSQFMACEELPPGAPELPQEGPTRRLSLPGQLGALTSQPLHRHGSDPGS

Hepatocyte [7] = assay: Clearance in rat hepatocytes measured per molar mass of cells; type: ADME, cell-based, Liver

| SMILES | MIC (Nakaseomyces glabratus) [µg/mL] | MIC (Candida albicans) [µg/mL] | pIC50 (Beta-1,3-glucan synthase) | other results |
| --- | --- | --- | --- | --- |
| O=c1c(OC2CCCC2)c(N2CCN(S(=O)(=O)c3ccccn3)CC2)cnn1-c1ccccc1 | 0.63 (≈ 1.31 µM) | 5 (≈ 10.4 µM) | 5.57 | – |
| CS(=O)(=O)N1CCN(c2cnn(-c3ccccc3)c(=O)c2OC2CCCC2)CC1 | 0.63 (≈ 1.51 µM) | > 20 | 5.28 | – |
| O=c1c(N2CCOCC2)c(N2CCN(S(=O)(=O)Cc3ccccc3)CC2)cnn1-c1ccccc1 | 0.39 (≈ 0.787 µM) | > 50 | 5.03 | – |
| O=c1c(C2CCCCC2)c(N2CCN(S(=O)(=O)Cc3ccccc3)CC2)cnn1-c1ccccc1 | > 20 | > 20 | 5.35 | – |
| O=c1c(OC2CCCCC2)c(N2CCN(S(=O)(=O)Cc3ccccc3)CC2)cnn1-c1ccccc1 | 0.05 (≈ 0.0983 µM) | 0.78 (≈ 1.53 µM) | 5.98 | – |
| O=c1c(OC2CCCC2)c(N2CCN(S(=O)(=O)Cc3ccccc3)CC2)cnn1-c1ccccc1 | 0.03 (≈ 0.0607 µM) | 0.26 (≈ 0.526 µM) | 6.44 | – |
| CCOCCCNc1c(N2CCN(S(=O)(=O)Cc3ccccc3)CC2)cnn(-c2ccccc2)c1=O | 0.78 (≈ 1.52 µM) | > 50 | 5.35 | – |
| CCCCCCCc1c(N2CCN(S(=O)(=O)Cc3ccccc3)CC2)cnn(-c2ccccc2)c1=O | 0.78 (≈ 1.53 µM) | > 50 | 5.53 | – |
| CCCCCCCOc1c(N2CCN(S(=O)(=O)Cc3ccccc3)CC2)cnn(-c2ccccc2)c1=O | < 0.1 | 0.78 (≈ 1.49 µM) | 6.64 | – |
| CCOCCOc1c(N2CCN(S(=O)(=O)Cc3ccccc3)CC2)cnn(-c2ccccc2)c1=O | 0.1 (≈ 0.201 µM) | 3.1 (≈ 6.22 µM) | 5.74 | – |
| CCCCCCCSc1c(N2CCN(S(=O)(=O)Cc3ccccc3)CC2)cnn(-c2ccccc2)c1=O | 0.78 (≈ 1.44 µM) | – | 5.69 | MIC50 (Candida albicans): 3.1 µg/mL (≈ 5.73 µM) |
| CCCCCCC[S+]([O-])c1c(N2CCN(S(=O)(=O)Cc3ccccc3)CC2)cnn(-c2ccccc2)c1=O (stereo not drawn) | 0.59 (≈ 1.06 µM) | 25 (≈ 44.9 µM) | 5.27 | – |
| CCCCCCCS(=O)(=O)c1c(N2CCN(S(=O)(=O)Cc3ccccc3)CC2)cnn(-c2ccccc2)c1=O | 1.6 (≈ 2.79 µM) | > 50 | < 4.76 | – |
| CC1CN(S(=O)(=O)Cc2ccccc2)CCN1c1cnn(-c2ccccc2)c(=O)c1OC1CCCCC1 (stereo not drawn) | 0.39 (≈ 0.746 µM) | 6.3 (≈ 12.1 µM) | 5.38 | – |
| C[C@@H]1CN(c2cnn(-c3ccccc3)c(=O)c2OC2CCCCC2)CCN1S(=O)(=O)Cc1ccccc1 | 0.78 (≈ 1.49 µM) | – | 5.27 | MIC50 (Candida albicans): 19 µg/mL (≈ 36.4 µM) |
| C[C@H]1CN(c2cnn(-c3ccccc3)c(=O)c2OC2CCCCC2)CCN1S(=O)(=O)Cc1ccccc1 | 0.39 (≈ 0.746 µM) | – | 5.08 | MIC50 (Candida albicans): 2 µg/mL (≈ 3.83 µM) |
| O=c1c(OC2CCCCC2)c(N2CC3CC2CN3S(=O)(=O)Cc2ccccc2)cnn1-c1ccccc1 (stereo not drawn) | > 50 | > 50 | < 4.72 | – |
| O=c1c(OC2CCCC2)c(N2CCN(S(=O)(=O)Cc3ccccn3)CC2)cnn1-c1ccccc1 | 0.06 (≈ 0.121 µM) | 8.4 (≈ 16.9 µM) | 5.92 | – |

| SMILES | MIC (Nakaseomyces glabratus) [µg/mL] | MIC (Candida albicans) [µg/mL] | pIC50 (Beta-1,3-glucan synthase) | other results |
| --- | --- | --- | --- | --- |
| O=c1c(OC2CCCC2)c(N2CCN(S(=O)(=O)Cc3cccnc3)CC2)cnn1-c1ccccc1 | 0.13 (≈ 0.262 µM) | 8.4 (≈ 16.9 µM) | 6.39 | – |
| O=c1c(OC2CCCC2)c(N2CCN(S(=O)(=O)c3ccccc3)CC2)cnn1-c1ccccc1 | 0.15 (≈ 0.312 µM) | – | < 4.68 | MIC50 (Candida albicans): 0.78 µg/mL (≈ 1.62 µM) |
| CC(C)S(=O)(=O)N1CCN(c2cnn(-c3ccccc3)c(=O)c2OC2CCCC2)CC1 | 0.2 (≈ 0.448 µM) | – | 5.42 | MIC50 (Candida albicans): 25 µg/mL (≈ 56 µM); AUC(0-t) at 6 h [1]: 1600 ng·h/mL |
| CC(C)S(=O)(=O)N1CCN(c2cnn(C3CCCCC3)c(=O)c2OC2CCCC2)CC1 | 0.78 (≈ 1.72 µM) | > 50 | 4.71 | – |
| CC(C)S(=O)(=O)N1CCN(c2cnn(-c3cccnc3)c(=O)c2OC2CCCC2)CC1 | 1.6 (≈ 3.57 µM) | > 50 | 4.87 | – |
| CC(C)S(=O)(=O)N1CCN(c2cnn(-c3nccs3)c(=O)c2OC2CCCC2)CC1 | 8.4 (≈ 18.5 µM) | > 20 | < 4.66 | – |
| CC(C)S(=O)(=O)N1CCN(c2cnn(-c3cccc(F)c3)c(=O)c2OC2CCCC2)CC1 | 0.1 (≈ 0.215 µM) | 6.3 (≈ 13.6 µM) | 5.67 | minimal effective concentration (Aspergillus fumigatus): 1.6 µg/mL; AUC(0-t) at 6 h [1]: 670 ng·h/mL |
| CC(C)S(=O)(=O)N1CCN(c2cnn(-c3cccc(Cl)c3)c(=O)c2OC2CCCC2)CC1 | 0.1 (≈ 0.208 µM) | 3.1 (≈ 6.44 µM) | 5.97 | AUC(0-t) at 6 h [1]: 490 ng·h/mL |
| CC(C)S(=O)(=O)N1CCN(c2cnn(-c3cc(F)cc(F)c3)c(=O)c2OC2CCCC2)CC1 | 0.4 (≈ 0.829 µM) | 6.3 (≈ 13.1 µM) | 5.89 | – |
| CC(C)S(=O)(=O)N1CCN(c2cnn(-c3cc(F)cc(Cl)c3)c(=O)c2OC2CCCC2)CC1 | 0.06 (≈ 0.12 µM) | 6.3 (≈ 12.6 µM) | 6.30 | AUC(0-t) at 6 h [1]: 490 ng·h/mL |
| CC(C)S(=O)(=O)N1CCN(c2cnn(-c3cc(Cl)cc(Cl)c3)c(=O)c2OC2CCCC2)CC1 | 0.2 (≈ 0.388 µM) | 3.1 (≈ 6.01 µM) | 6.30 | – |
| CC(C)S(=O)(=O)N1CCN(c2cnn(-c3cccc(O)c3)c(=O)c2OC2CCCC2)CC1 | 2.5 (≈ 5.4 µM) | > 20 | 5.71 | – |
| CC(C)S(=O)(=O)N1CCN(c2cnn(-c3cccc(N)c3)c(=O)c2OC2CCCC2)CC1 | 25 (≈ 54.2 µM) | > 50 | 5.39 | – |
| CC(C)S(=O)(=O)N1CCN(c2cnn(-c3cccc(F)c3)c(=O)c2OC2CCC(F)(F)C2)CC1 (stereo not drawn) | 0.78 (≈ 1.56 µM) | 6.3 (≈ 12.6 µM) | 5.66 | minimal effective concentration (Aspergillus fumigatus): 3.1 µg/mL; AUC(0-t) at 6 h [1]: 470 ng·h/mL |
| CC(C)S(=O)(=O)N1CCN(c2cnn(-c3cc(F)cc(F)c3)c(=O)c2OC2CCC(F)(F)C2)CC1 (stereo not drawn) | 0.05 (≈ 0.0964 µM) | 12.5 (≈ 24.1 µM) | 5.94 | minimal effective concentration (Aspergillus fumigatus): 3.1 µg/mL; AUC(0-t) at 6 h [1]: 440 ng·h/mL |
| CC(C)S(=O)(=O)N1CCN(c2cnn(-c3cccc(F)c3)c(=O)c2OC2CCC(F)C2)CC1 (racemic) | 0.13 (≈ 0.269 µM) | 16.7 (≈ 34.6 µM) | 6.06 | minimal effective concentration (Aspergillus fumigatus): 4.2 µg/mL; AUC(0-t) at 6 h [1]: 300 ng·h/mL |
| CC(C)S(=O)(=O)N1CCN(c2cnn(-c3cc(F)cc(F)c3)c(=O)c2OC2CCC(F)C2)CC1 (racemic) | 0.1 (≈ 0.2 µM) | 6.3 (≈ 12.6 µM) | 5.91 | inhibition (INH) (Cytochrome P450 2C9): Not Active; inhibition (INH) (Cytochrome P450 2D6): Not Active; inhibition (INH) (Cytochrome P450 3A4): Not Active; CL (Hepatocyte [2]): 1 µL/min; log10cfu (Candida glabrata [3]): 4.16; AUC(0-t) at 8 h [4]: 3500 ng·h/mL; minimal effective concentration (Aspergillus fumigatus): 1.6 µg/mL; CL [5]: 1.7 µL/min; log10cfu (Candida glabrata [6]): 1.3; inhibition at 1 µM (hERG (KCNH2)): 22%; AUC(0-t) at 6 h [1]: 2100 ng·h/mL; CL (Hepatocyte [7]): 2.4 µL/min |
